Patent US9896441B2 (Lycera Corporation, priority 2014, dated 2018)
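Throughout, for TR-FRET Assay Max Response: 665/615 nm signal ratio set to 100 without ursolic acid or test compound.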

The compounds below were run against T1, RORγ-LBD (Homo sapiens, UniProt P51449) (assay: RORγ-Ligand Binding Domain (LBD) TR-FRET Assay). Conditions: RORγ-LBD TR-FRET.
T1 construct: made in house; host or cells: SF9 cells (baculovirus); used as diluted lysate
T1 sequence (P51449 269-508 limits assumed): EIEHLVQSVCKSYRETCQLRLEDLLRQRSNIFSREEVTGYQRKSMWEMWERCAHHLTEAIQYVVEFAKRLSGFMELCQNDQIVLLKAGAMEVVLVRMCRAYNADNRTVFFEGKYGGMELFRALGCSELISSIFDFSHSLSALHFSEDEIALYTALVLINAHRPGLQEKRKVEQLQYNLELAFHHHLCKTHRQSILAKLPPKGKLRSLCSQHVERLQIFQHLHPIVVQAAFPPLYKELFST
Format: biochemical
Method: (§1) Assay procedures and results are described below.
HIS-tagged RORγ-LBD protein was expressed in SF9 cells using a baculovirus expression system. The lysate was diluted in assay buffer (50 mM Tris pH 7.0, 50 mM KCl, 1 mM EDTA, 0.1 mM DTT, 0.01% BSA) to obtain RORγ-LBD final concentration of ˜3 nM in a 384-well assay plate (need to titrate for each batch of protein).
A stock of biotinylated-LXXLL peptide from coactivator SRC1 (Biotin-[…]) was prepared in assay buffer and added to each well (200 nM final concentration). […] RORγ antagonist ursolic acid was also included at a final concentration of 2 μM. Compounds were diluted in DMSO and further diluted in assay buffer with a final DMSO concentration at 1%.
`COc1cc(S(=O)(=O)N2CCCc3ccc(OCc4c(F)cccc4Cl)cc32)ccc1F` [Example 24, 7-((2-Chloro-6-fluorobenzyl)oxy)-1-((4-fluoro-3-methoxyphenyl)sulfonyl)-1,2,3,4-tetrahydroquinoline] showed an EC50 of under 500 nM. `O=S(=O)(c1cccc(C(F)(F)F)c1)N1CCCc2cc(Br)c(OCc3c(F)cccc3Cl)cc21` [Example 28F] gave an EC50 of under 500 nM. Work on `Cc1cc2c(cc1OCc1c(F)cccc1Cl)N(S(=O)(=O)c1cccc(C(F)(F)F)c1)CCC2` [Example 28D] yielded an EC50 of under 500 nM. With `Cc1nn(C(F)F)cc1S(=O)(=O)N1CC(CO)Cc2ccc(OCc3c(F)cccc3Cl)cc21` (stereo not drawn) [Example 9D] the EC50 was under 500 nM. Compound `Cc1noc(C)c1/C=C/c1ccc2c(c1)N(S(=O)(=O)c1cccc(C(F)(F)F)c1)C[C@H](CCC(=O)O)O2` [Example 89BR, (S,E)-3-(6-(2-(3,5-dimethylisoxazol-4-yl)vinyl)-4-((3-(trifluoromethyl)phenyl)sulfonyl)-3,4-dihydro-2H-benzo[b][1,4]-oxazin-2-yl)propanoic acid] has an EC50 of over 10000 nM. `O=S(=O)(c1cccc(C(F)(F)F)c1)N1CCCc2cc(OCC3CCCCC3)ccc21` [Example 25M, 6-(cyclohexylmethoxy)-1-((3-(trifluoromethyl)phenyl)sulfonyl)-1,2,3,4-tetrahydroquinoline] gave an EC50 of under 500 nM. In the case of `COc1cc(S(=O)(=O)N2CCCc3ccc(O[C@@H]4c5ccccc5C[C@@H]4C)cc32)ccc1F` (relative stereo) [Example 25D, 1-((4-fluoro-3-methoxyphenyl)sulfonyl)-7-(((cis)-2-methyl-2,3-dihydro-1H-inden-1-yl)oxy)-1,2,3,4-tetrahydroquinoline], the EC50 is reported as under 500 nM. `O=C(O)CC[C@H]1CN(S(=O)(=O)c2cc(C(F)(F)F)cnc2OCCO)c2cc(C=C3CCC(O)CC3)ccc2O1` (stereo partly drawn) [Example 95V, 3-((2S)-6-((4-hydroxycyclohexylidene)-methyl)-4-((2-(2-hydroxyethoxy)-5-(trifluoromethyl)pyridin-3-yl)sulfonyl)-3,4-dihydro-2H-benzo[b][1,4]oxazin-2-yl)propanoic acid] gave an EC50 of 500 to 5000 nM. `O=S(=O)(c1cccc(C(F)(F)F)c1)N1CCCc2cc(Cl)c(OCc3c(F)cccc3Cl)cc21` [Example 28A] was tested, and the EC50 was under 500 nM. Work on `COc1cc(S(=O)(=O)N2CCCc3ccc(O[C@H]4CCc5ccccc54)cc32)ccc1F` [Example 25A, (S)-7-((2,3-dihydro-1H-inden-1-yl)oxy)-1-((4-fluoro-3-methoxyphenyl)sulfonyl)-1,2,3,4-tetrahydroquinoline] yielded an EC50 of under 500 nM.

Same assay, conditions: RORγ-LBD TR-FRET assay
With `C/C(=C\c1ccc2c(c1)CC(CC(=O)O)CN2S(=O)(=O)c1cccc(C(F)(F)F)c1)c1c(F)cccc1Cl` (stereo not drawn) [Example 150, (E)-2-(6-(2-(2-Chloro-6-fluorophenyl)prop-1-en-1-yl)-1-((3-(trifluoromethyl)phenyl)sulfonyl)-1,2,3,4-tetrahydroquinolin-3-yl)acetic acid] the EC50 was over 10000 nM. `CCOC(=O)C(C)(C)CC1C[C@H](S(=O)(=O)c2cccc(C(F)(F)F)c2)c2cc(/C=C(\C)c3c(F)cccc3Cl)ccc2O1` (stereo in doubt) [Example 186L, ethyl 3-((2S,4S)-6-((E)-2-(2-chloro-6-fluorophenyl)prop-1-en-1-yl)-4-((3-(trifluoromethyl)phenyl)-sulfonyl)chroman-2-yl)-2,2-dimethylpropanoate] gave an EC50 of under 500 nM. `COC(=O)N[C@@H]1Cc2ccc(/C=C(\C)c3c(F)cccc3Cl)cc2N(S(=O)(=O)c2cccc(C(F)(F)F)c2)[C@@H]1C` [Example 143, Methyl ((2R,3R)-7-((E)-2-(2-chloro-6-fluorophenyl)prop-1-en-1-yl)-2-methyl-1-((3-(trifluoromethyl)phenyl)sulfonyl)-1,2,3,4-tetrahydroquinolin-3-yl)carbamate] was tested, and the EC50 was under 500 nM. With `C[C@@H]1[C@H](NC(=O)Nc2ccccn2)Cc2ccc(/C=C/c3c(F)cccc3C(F)(F)F)cc2N1S(=O)(=O)c1cccc(C(F)(F)F)c1` [Example 116M, 1-((2R,3R)-7-((E)-2-fluoro-6-(trifluoromethyl)styryl)-2-methyl-1-((3-(trifluoro-methyl)phenyl)sulfonyl)-1,2,3,4-tetrahydroquinolin-3-yl)-3-(pyridin-2-yl)urea] the EC50 was 500 to 5000 nM.

Same assay, conditions: RORγ-LBD TR-FRET assay, maximum response
`CCOC(=O)C(C)(C)CC1C[C@H](S(=O)(=O)c2cccc(C(F)(F)F)c2)c2cc(/C=C(\C)c3c(F)cccc3Cl)ccc2O1` (stereo in doubt) [Example 186L, ethyl 3-((2S,4S)-6-((E)-2-(2-chloro-6-fluorophenyl)prop-1-en-1-yl)-4-((3-(trifluoromethyl)phenyl)-sulfonyl)chroman-2-yl)-2,2-dimethylpropanoate] was tested, and the “TR-FRET Assay Max Response” value was “*** (a value in the range of greater than 150 to 200)”. In the case of `COC(=O)N[C@@H]1Cc2ccc(/C=C(\C)c3c(F)cccc3Cl)cc2N(S(=O)(=O)c2cccc(C(F)(F)F)c2)[C@@H]1C` [Example 143, Methyl ((2R,3R)-7-((E)-2-(2-chloro-6-fluorophenyl)prop-1-en-1-yl)-2-methyl-1-((3-(trifluoromethyl)phenyl)sulfonyl)-1,2,3,4-tetrahydroquinolin-3-yl)carbamate], the “TR-FRET Assay Max Response” value is reported as “** (a value in the range of greater than 90 to 150)”. In the case of `C[C@@H]1[C@H](NC(=O)Nc2ccccn2)Cc2ccc(/C=C/c3c(F)cccc3C(F)(F)F)cc2N1S(=O)(=O)c1cccc(C(F)(F)F)c1` [Example 116M, 1-((2R,3R)-7-((E)-2-fluoro-6-(trifluoromethyl)styryl)-2-methyl-1-((3-(trifluoro-methyl)phenyl)sulfonyl)-1,2,3,4-tetrahydroquinolin-3-yl)-3-(pyridin-2-yl)urea], the “TR-FRET Assay Max Response” value is reported as “*** (a value in the range of greater than 150 to 200)”.

Same assay, conditions: with 2 μM ursolic acid (RORγ antagonist); highest test concentration 10 μM
For `C/C(=C\c1ccc2c(c1)N(S(=O)(=O)c1cc(C3CC3)cnc1OCCO)C[C@H](CCC(=O)O)O2)c1c(F)cccc1Cl` [Example 86BC, (S,E)-3-(6-(2-(2-chloro-6-fluorophenyl)prop-1-en-1-yl)-4-((5-cyclopropyl-2-(2-hydroxyethoxy)pyridin-3-yl)sulfonyl)-3,4-dihydro-2H-benzo[b][1,4]oxazin-2-yl)propanoic acid], the EC50 was under 500 nM. `O=C(O)C1Cc2ccc(OCc3cc(C(F)(F)F)ccc3F)cc2N(S(=O)(=O)c2cccc(C(F)(F)F)c2)C1` (stereo not drawn) showed an EC50 of under 500 nM. Work on `COc1cc(S(=O)(=O)N2CC(C(=O)O)Cc3ccc(OCc4c(F)cccc4Cl)cc32)ccc1F` (stereo not drawn) yielded an EC50 of under 500 nM. `COC(=O)C[C@H]1CN(S(=O)(=O)c2cccc(C(F)(F)F)c2)c2cc(NCc3c(F)cccc3Cl)ccc2O1` showed an EC50 of under 500 nM. `CCn1cc(S(=O)(=O)N2CC(C(=O)O)Oc3ccc(OCc4c(F)cccc4Cl)cc32)c(Cl)n1` (stereo not drawn) gave an EC50 of under 500 nM. Work on `O=S(=O)(c1cccc(C(F)(F)F)c1)N1CC(CO)Cc2ccc(OCc3c(F)cccc3Cl)cc21` (stereo not drawn) yielded an EC50 of under 500 nM. For `CCOC(=O)C1Cc2ccc(OCc3c(F)cccc3Cl)cc2N(S(=O)(=O)c2cn(CC)nc2Cl)C1` (stereo not drawn) [drawing 1599], the EC50 was under 500 nM. `CC(=O)NC[C@H]1CN(S(=O)(=O)c2cccc(C(F)(F)F)c2)c2cc(NCc3c(F)cccc3Cl)ccc2O1` gave an EC50 of under 500 nM. In the case of `CCn1cc(S(=O)(=O)N2CC(C(=O)O)Cc3ccc(/C=C(\C)c4c(F)cccc4Cl)cc32)c(Cl)n1` (stereo not drawn), the EC50 is reported as under 500 nM.

The compounds below were run against T2, Gal4-RORγ-LBD (Homo sapiens, UniProt P51449) (assay: Gal4-RORγ Luciferase Reporter Assay in HEK-293T Cells). Conditions: HEK-293 cells, luciferase reporter, in presence of ursolic acid.
T2 construct: expressed in transfected cells
T2 sequence (P51449 269-508 limits assumed): T1 sequence (P51449 269-508 limits assumed)
Format: cell-based
Method: as §1
In the following protocol, HEK-293 cells were transfected with a construct comprising the Gal4 DNA binding domain fused to the ligand binding domain of RORγ (Gal4-RORγ-LBD) in a pcDNA3.1neo plasmid, and also with a reporter construct comprising pGL4.31 Gal4-luciferase (Promega). Control cells were prepared similarly using empty pcDNA3.1neo and pGL4.31 vectors.
Trans-IT reagent (Mirus, 60 μL) at room temperature was added drop wise to OptiMEM (Invitrogen, 1.5 ml). This reagent mixture was mixed by inversion then incubated for 5 to 30 minutes at room temperature. It then was added to a solution of both expression vectors (5 μg each), mixed, and incubated at room temperature for about 20 minutes. HEK-293 cells were harvested from incubation flasks by removing the media, treating with TrypLE Express (Invitrogen), and incubating until the cells detached from the bottom of the flask (approximately 2-5 minutes). 10 Million cells were collected by centrifugation and re-suspended in 10 mL of Dulbecco's Modified Eagle Medium, High Glucose (DMEM, Invitrogen) containing 10% Fetal Bovine Serum and 100 IU each of penicillin and streptomycin. The re-suspended cells and the transfection mixture were added to a T75 flask, mixed and incubated overnight at 37° C. and 5% CO2.
The cells were harvested as described above, counted, and centrifuged to obtain the desired number of cells, then re-suspended in complete growth media at 0.75×10^6 cells/mL. The RORγ antagonist, ursolic acid, was added to the cells at a final concentration of […]. Cells were plated at 20 µL of cell suspension/well (10,000-15,000 cells/well) in white tissue culture treated 384 well plates. Test compounds were dissolved at 10 mM in DMSO then diluted into complete growth medium to 5× the final intended test concentration. These drug stock solutions, 5 µL/well were added to the tissue culture plate. The final DMSO concentration was 0.2%. The plates were briefly centrifuged then incubated overnight at 37° C. and 5% CO2. To conduct the assay, the tissue culture plates were allowed to equilibrate to room temperature and One-Glo luciferase reagent (Promega, 25 µL/well) was added. The plates were briefly centrifuged then incubated at room temperature for 10 minutes. The luciferase intensity was read on an Envision plate reader (Perkin Elmer). […] The luciferase signal in the absence of ursolic acid or test compound is defined at 100. The Max Response is the upper plateau in the signal as determined by line-fit using a 4-parameter logistic model in PRISM (GraphPad).
`C/C(=C\c1ccc2c(c1)N(S(=O)(=O)c1cccc(C(F)(F)F)c1)C[C@H](CCC(=O)NCCC(=O)O)O2)c1c(F)cccc1Cl` [Example 129P, (S,E)-3-(3-(6-(2-(2-chloro-6-fluorophenyl)-prop-1-en-1-yl)-4-((3-(trifluoromethyl)phenyl)-sulfonyl)-3,4-dihydro-2H-benzo[b][1,4]oxazin-2-yl)propanamido)-propanoic acid] was tested, and the EC50 was under 500 nM.

Same assay, conditions: HEK-293 cells, luciferase reporter, in presence of ursolic acid, maximum response
In the case of `C/C(=C\c1ccc2c(c1)N(S(=O)(=O)c1cccc(C(F)(F)F)c1)C[C@H](CCC(=O)NCCC(=O)O)O2)c1c(F)cccc1Cl` [Example 129P, (S,E)-3-(3-(6-(2-(2-chloro-6-fluorophenyl)-prop-1-en-1-yl)-4-((3-(trifluoromethyl)phenyl)-sulfonyl)-3,4-dihydro-2H-benzo[b][1,4]oxazin-2-yl)propanamido)-propanoic acid], the “Gal4-RORγ Assay Max Response” value is reported as “*** (a value in the range of greater than 150 to 200)”.

Same assay, conditions: HEK-293 cells, luciferase reporter, with ursolic acid
For `CC/C(=C\c1ccc2c(c1)N(S(=O)(=O)c1cccc(C(F)(F)F)c1)C[C@H](CCC(=O)OC)O2)c1ccccc1` [Example 36B, methyl (S,E)-3-(6-(2-phenylbut-1-en-1-yl)-4-((3-(trifluoromethyl)-phenyl)sulfonyl)-3,4-dihydro-2H-benzo[b][1,4]oxazin-2-yl)propanoate], the EC50 was over 10000 nM. Compound `COC(=O)CC[C@H]1CN(S(=O)(=O)c2cccc(C(F)(F)F)c2)c2cc(/C=C/c3ncccc3F)ccc2O1` [Example 89DG, methyl (S,E)-3-(6-(2-(3-fluoropyridin-2-yl)vinyl)-4-((3-(trifluoromethyl)phenyl)-sulfonyl)-3,4-dihydro-2H-benzo[b][1,4]oxazin-2-yl)propanoate] has an EC50 of over 10000 nM.
